Several values for one entry are separate records, joined by “and”; a condition that tells them apart may be missing. Equal values may be shown once.
Tested on: GEMS receptors with CBPvene (Bcl2–LD3 and Bcl2high variants), STAT3-driven SEAP in HEK293T cells
Assay: GEMS SEAP reporter assay, CBPvene (Bcl2high, LD3-v and Bcl2-v variants) with venetoclax
Assay type: cell-based
Details: for SEAP / SEAP normalized (max=100): Supp Fig 10a
[1] = CBPVene-v5-Bcl2v2, Venetoclax 1000 nM
[2] = CBPVene-v5-Bcl2v2, Venetoclax 3160 nM
[3] = CBPVene-v5-Bcl2v2, Venetoclax 10000 nM
[4] = CBPVene-v5-LD3v1, Venetoclax 1 nM
[5] = CBPVene-v5-LD3v1, Venetoclax 3.16 nM
[6] = CBPVene-v5-LD3v1, Venetoclax 10 nM
[7] = CBPVene-v5-LD3v1, Venetoclax 31.6 nM
[8] = CBPVene-v5-LD3v1, Venetoclax 316 nM
[9] = CBPVene-v5-LD3v1, Venetoclax 1000 nM
[10] = CBPVene-v5-LD3v1, Venetoclax 10000 nM

## CC1(C)CCC(CN2CCN(c3ccc(C(=O)NS(=O)(=O)c4ccc(NCC5CCOCC5)c([N+](=O)[O-])c4)c(Oc4cnc5[nH]ccc5c4)c3)CC2)=C(c2ccc(Cl)cc2)C1 [Venetoclax]
[1]
  Normalized data Figure 5f: 77.3797 and 77.4841 and 64.4738
  Raw data Figure 5f: 141.449 and 149.007 and 144.09
[2]
  Normalized data Figure 5f: 35.229 and 32.7238 and 23.2546
  Raw data Figure 5f: 64.398 and 62.9303 and 51.9708
[3]
  Normalized data Figure 5f: 15.1423 and 11.3283 and 13.9843
  Raw data Figure 5f: 27.6798 and 21.7852 and 31.253
CBPVene-v5-LD3v1, Venetoclax 0.01 nM
  Raw data of Independent repeat of CBPVene-v5 vs CBPVene-v5-LD3v1: 12.511 and 11.9088 and 12.8792
[4]
  Normalized data Figure 5c: 16.3682 and 15.9533 and 20.5713
  Raw data Figure 5c: 17.8707 and 19.0514 and 21.7836
  Raw data of Independent repeat of CBPVene-v5 vs CBPVene-v5-LD3v1: 12.1852 and 11.7838 and 11.0502
[5]
  Normalized data Figure 5c: 15.1322 and 15.2538 and 18.8062
  Raw data Figure 5c: 16.5212 and 18.216 and 19.9144
  Raw data of Independent repeat of CBPVene-v5 vs CBPVene-v5-LD3v1: 10.1265 and 10.196 and 11.563
[6]
  Normalized data Figure 5c: 22.3408 and 21.0089 and 24.5666
  Raw data Figure 5c: 24.3915 and 25.0888 and 26.0143
  Raw data of Independent repeat of CBPVene-v5 vs CBPVene-v5-LD3v1: 13.7645 and 12.6779 and 10.7132
[7]
  Normalized data Figure 5c: 35.5947 and 28.4669 and 38.0182
  Raw data Figure 5c: 38.8619 and 33.9951 and 40.2586
  Raw data of Independent repeat of CBPVene-v5 vs CBPVene-v5-LD3v1: 17.7633 and 18.8924 and 25.5
CBPVene-v5-LD3v1, Venetoclax 100 nM
  Raw data of Independent repeat of CBPVene-v5 vs CBPVene-v5-LD3v1: 38.3822 and 37.0306 and 47.6081
[8]
  Normalized data Figure 5c: 100
  Raw data Figure 5c: 109.179 and 119.42 and 105.893
  Raw data of Independent repeat of CBPVene-v5 vs CBPVene-v5-LD3v1: 60.7806 and 63.7576 and 57.9589
[9]
  Normalized data Figure 5c: 77.7899 and 68.2523 and 65.7986
  Raw data Figure 5c: 84.9301 and 81.5067 and 69.6762
  Raw data of Independent repeat of CBPVene-v5 vs CBPVene-v5-LD3v1: 40.6135 and 38.6218 and 45.893
CBPVene-v5-LD3v1, Venetoclax 3160 nM
  Raw data of Independent repeat of CBPVene-v5 vs CBPVene-v5-LD3v1: 20.9864 and 23.9183 and 23.9906
[10]
  Normalized data Figure 5c: 10.3166 and 8.27 and 9.621
  Raw data Figure 5c: 11.2636 and 9.876 and 10.1879
Figure 4h, Venetoclax 1 nM, representative data and independent repeats 1, 2 (triplicates)
  SEAP (U/L): 40.3558 U/L and 36.3798 U/L and 44.7796 U/L and 29.5956 U/L and 26.0853 U/L and 29.9849 U/L
Bcl2-v1, venetoclax 316 nM
  SEAP: 16.9918
  SEAP normalized (max=100): 72.9686
Bcl2-v1, venetoclax 1000 nM
  SEAP: 11.8168
  SEAP normalized (max=100): 50.7451
Bcl2-v1, venetoclax 3160 nM
  SEAP: 18.4889
  SEAP normalized (max=100): 79.3975
Bcl2-v1, venetoclax 10000 nM
  SEAP: 5.997
  SEAP normalized (max=100): 25.7548
Bcl2-v2, venetoclax 316 nM
  SEAP: 33.4045
  SEAP normalized (max=100): 100
Bcl2-v2, venetoclax 1000 nM
  SEAP: 18.2725
  SEAP normalized (max=100): 54.7009
Bcl2-v2, venetoclax 3160 nM
  SEAP: 17.6043
  SEAP normalized (max=100): 52.7004
Bcl2-v2, venetoclax 10000 nM
  SEAP: 8.798
  SEAP normalized (max=100): 26.337
Bcl2-v3, venetoclax 316 nM
  SEAP: 24.8752
  SEAP normalized (max=100): 70.756
Bcl2-v3, venetoclax 1000 nM
  SEAP: 15.674
  SEAP normalized (max=100): 44.5837
Bcl2-v3, venetoclax 3160 nM
  SEAP: 8.48
  SEAP normalized (max=100): 24.1195
Bcl2-v3, venetoclax 10000 nM
  SEAP: 5.027
  SEAP normalized (max=100): 14.2997
Bcl2-v4, venetoclax 316 nM
  SEAP: 20.3221
  SEAP normalized (max=100): 44.5121
Bcl2-v4, venetoclax 1000 nM
  SEAP: 12.5122
  SEAP normalized (max=100): 27.4059
Bcl2-v4, venetoclax 3160 nM
  SEAP: 8.91
  SEAP normalized (max=100): 19.5153
Bcl2-v4, venetoclax 10000 nM
  SEAP: 6.178
  SEAP normalized (max=100): 13.5319
Bcl2-v5, venetoclax 316 nM
  SEAP: 16.3938
  SEAP normalized (max=100): 41.8642
Bcl2-v5, venetoclax 1000 nM
  SEAP: 8.859
  SEAP normalized (max=100): 22.6219
Bcl2-v5, venetoclax 3160 nM
  SEAP: 8.087
  SEAP normalized (max=100): 20.652
Bcl2-v5, venetoclax 10000 nM
  SEAP: 5.778
  SEAP normalized (max=100): 14.7539
Bcl2-v6, venetoclax 316 nM
  SEAP: 25.9953
  SEAP normalized (max=100): 62.1077
